These results are taken from patent US20260176276A1, “COMPOUND FOR REGULATING AND CONTROLLING ACTIVITY OF 15-PGDH AND PREPARATION METHOD THEREFOR” (SCINNOHUB PHARMACEUTICAL CO., LTD, priority 2022, published 2026).

This assay addresses T1, 15-PGDH (Homo sapiens, UniProt P15428).
T1 construct: purchased Sino Biological Inc. 11205-H08E
T1 sequence (P15428 1-266): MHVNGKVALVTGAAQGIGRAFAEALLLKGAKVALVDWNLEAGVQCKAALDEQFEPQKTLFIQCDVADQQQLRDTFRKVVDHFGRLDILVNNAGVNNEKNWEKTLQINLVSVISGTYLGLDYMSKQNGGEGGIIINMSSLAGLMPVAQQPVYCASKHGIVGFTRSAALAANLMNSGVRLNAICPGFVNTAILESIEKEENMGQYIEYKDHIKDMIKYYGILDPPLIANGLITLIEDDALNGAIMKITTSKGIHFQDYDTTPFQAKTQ
The assay can be described thus: Detection of activity of 15-PGDH kinase (enzyme inhibition, fluorescence slope). Format: biochemical. The following applies: inhibitory activity against 15-PGDH enzyme; substrates PGF2α and β-NAD; fluorescence Ex/Em=340/450. Here is the method:
[table] • a. A solution of pH 7.5 containing 50 mM Tris-HCl, 0.01% Tween 20 was prepared with ultrapure water as a reaction buffer; • b. A 10 mM mother liquor of the compound to be tested was prepared with DMSO, and then the reaction buffer was used to dilute the mother liquor of the compound to be tested to obtain solution 1 of the compound to be tested at a concentration of 4000 nM, and then the solution 1 of the compound to be tested was serially diluted into solutions 2-10 of the compound to be tested at 9 concentrations with a gradient difference of three-fold. 5 μL of each of solutions 1-10 of the compound to be tested was taken and added into a 384-well plate as test wells; • c. 5 μL of the reaction buffer was added to the 384-well plate as positive control and blank control wells; • d. The reaction buffer was used to prepare a 15-PGDH protein solution at a concentration of 5 ng/μL, 5 μL of the 15-PGDH protein solution was taken and added to the test wells and positive control wells, and 5 μL of the reaction buffer was added to the blank control wells at the same time, then the plate was centrifuged at 2000 rpm for 30 seconds; • e. The reaction buffer was used to prepare 5 mM R-NAD and 2 mM PGF2α, respectively, which were mixed at 1:1 by volume to obtain a substrate mixture, 10 μL of the substrate mixture was taken and added to the test wells, positive control wells and blank control wells to start the reaction; • f. The fluorescence signal value (Ex/Em=340/450) of each well was detected continuously by using a multifunctional microplate reader. • a) Continuous fluorescence signal values were analyzed by using the “kinetic calculations-slope calculation method” in the PHERAstar Data analysis software to obtain the slope of each test well; • b) The inhibition rate % was calculated by using the following formula: [formula] • c) Calculation of IC50 and plotting of inhibition rate-dose curves: IC50 values were calculated by fitting compound concentrations and corresponding inhibition rates with nonlinear regression (dose response-variable slope) via using GraphPad Prism 6.0. The formula is shown below: [formula] wherein X is a log value of a concentration of the compound, and Y is inhibition rate %.
`CCCC[S+]([O-])c1sc2nc(-c3ccccc3)n3ccnc3c2c1N` (stereo not drawn) [Example 1, 8-(butylsulfinyl)-5-phenylimidazo[1,2-c]thieno[3,2-e]pyrimidin-9-amine] yielded an IC50 of 4 to 10 nM.

On to `CCCC[S+]([O-])c1sc2nc(-c3ccccc3)n3c(C)nnc3c2c1N` (stereo not drawn) [Example 4, 8-(butylsulfinyl)-3-methyl-5-phenylthieno[3,2-e][1,2,4]triazolo[4,3-c]pyrimidin-9-amine], for which the IC50 fell in the range of 4 to 10 nM.

Compound `CCCC[S+]([O-])c1sc2nc(-c3ccccc3)n3cc(C)nc3c2c1N` (stereo not drawn) [Example 5] gave an IC50 of less than 1.5 nM.

`CCCC[S+]([O-])c1sc2nc(-c3ccccc3)n3cc(C(F)(F)F)nc3c2c1N` (stereo not drawn) [Example 6] came in with an IC50 of 4 to 10 nM.

As to `Nc1c([S+]([O-])C2CCCC2)sc2nc(-c3ccccc3)n3ccnc3c12` (stereo not drawn) [Example 7], the 50% inhibitory concentration (IC50) lay within 4 to 10 nM.

`Nc1c([S+]([O-])C2CCCCC2)sc2nc(-c3ccccc3)n3ccnc3c12` (stereo not drawn) [Example 8] displayed an IC50 of 4 to 10 nM.

In turn, `Nc1c([S+]([O-])C2COC2)sc2nc(-c3ccccc3)n3ccnc3c12` (stereo not drawn) [Example 9] yielded an IC50 of 10 to 15 nM.

Take `CCCC[S+]([O-])c1sc2nc(-c3cnccn3)n3ccnc3c2c1N` (stereo not drawn) [Example 10]: the IC50 was 4 to 10 nM.

For `CCCC[S+]([O-])c1sc2nc(-c3nccs3)n3ccnc3c2c1N` (stereo not drawn) [Example 11], the IC50 fell in the range of 1.5 to 4 nM.

With `CCCC[S+]([O-])c1sc2nc(-c3ncccn3)n3ccnc3c2c1N` (stereo not drawn) [Example 12], the IC50 lay in the range of 1.5 to 4 nM.

Take `CCCC[S+]([O-])c1sc2nc(-c3cccnc3)n3ccnc3c2c1N` (stereo not drawn) [Example 13]: the IC50 was less than 1.5 nM.

Take `CCCC[S+]([O-])c1sc2nc(-c3ccsc3)n3ccnc3c2c1N` (stereo not drawn) [Example 14]: the IC50 lay within 1.5 to 4 nM.

With `CCCC[S+]([O-])c1sc2nc(-c3cnn(C)c3)n3ccnc3c2c1N` (stereo not drawn) [Example 15], the IC50 was 1.5 to 4 nM.

As to `CCCC[S+]([O-])c1sc2nc(-c3ccncc3)n3ccnc3c2c1N` (stereo not drawn) [Example 16], the IC50 was 1.5 to 4 nM.

Compound `CCCC[S+]([O-])c1sc2nc(-c3ccc(N4CCOCC4)nc3)n3ccnc3c2c1N` (stereo not drawn) [Example 17] came in with a concentration for half-maximal inhibition (IC50) of 4 to 10 nM.

Consider `CCCC[S+]([O-])c1sc2nc(-c3ccccc3)n3cnnc3c2c1N` (stereo not drawn) [Example 18], for which the IC50 lay in the range of 10 to 15 nM.

Turning to `CCCC[S+]([O-])c1sc2nc(-c3ccccc3)n3c(C)cnc3c2c1N` (stereo not drawn) [Example 19], the IC50 lay within 1.5 to 4 nM.

In the case of `CCCC[S+]([O-])c1sc2nc(-c3ccccc3)n3ccnc3c2c1C` (stereo not drawn) [Example 20], the IC50 lay in the range of 15 to 30 nM.

`CCCC[S+]([O-])c1sc2nc(-c3ccc4c(c3)CN(C)C4=O)n3ccnc3c2c1N` (stereo not drawn) [Example 21] displayed an IC50 of 1.5 to 4 nM.

`CCCC[S+]([O-])c1sc2nc(-c3ccc(C(=O)O)cc3)n3ccnc3c2c1N` (stereo not drawn) [Example 22] gave an IC50 of 1.5 to 4 nM.

As to `Nc1c([S+]([O-])Cc2ccccc2)sc2nc(-c3ccccc3)n3ccnc3c12` (stereo not drawn) [Example 23], the IC50 was 10 to 15 nM.

The compound `CCC(C)C[S+]([O-])c1sc2nc(-c3ccccc3)n3ccnc3c2c1N` (stereo not drawn) [Example 24] showed an IC50 of 4 to 10 nM.

The compound `CC(C)C[S+]([O-])c1sc2nc(-c3ccccc3)n3ccnc3c2c1N` (stereo not drawn) [Example 25] gave an IC50 greater than 30 nM.

Take `CC(C)(C)[S+]([O-])c1sc2nc(-c3ccccc3)n3ccnc3c2c1N` (stereo not drawn) [Example 26]: the IC50 was 10 to 15 nM.
